Source: paper PMC11173677, “Identification and Evaluation of Olive Phenolics in the Context of Amine Oxidase Enzyme Inhibition and Depression: In Silico Modelling and In Vitro Validation” (Molecules, 2024)
Read-outs that look alike come from different tables or passages of the source.

What was measured:
[1] = biological target: T1, LSD1 (Homo sapiens, UniProt O60341); conditions: in vitro assays; cited from earlier work
T1 construct: Reaction Biology Corporation (performed the assay)

[2] = system: T2, MAO-B; test: MAO-B activity assay in hESC-derived neurons stimulated with ATRA; assay type: cell-based, human; conditions: 1 μM ATRA 24 h, then TCP 5 μM, OLC 50 μM or OLP 50 μM for 24 h
T2 construct: endogenous in cells; host or cells: BJ human foreskin fibroblasts stimulated with DEX or HC
Experimental: (§1) An in vitro model of MDD was designed for stem cell-derived neuronal cells through incubation of 1 μM all-trans retinoic acid (Sigma-Aldrich PHR1187, St. Louis, MO, USA). All cell treatments were conducted in duplicate and replicated using independently differentiating neuronal plates.
(§2) Activity assays were commercially sourced from BioVision (Abcam, BioVision ab241031, Waltham, MA, USA) and were performed according to manufacturer’s instructions. The treatment groups were plated in duplicate on a black, flat 96-well microplate. The cells were homogenised in assay buffer using a microtube mixer at 4 °C and centrifuged at 10,000× g for 10 min. A Bradford assay was performed to determine the total protein concentration within each cell pellet (200 μg/well for BJ cells, 40 μg/well for hESC-derived neurons). Approximately 40 μL of supernatant was loaded into wells along with 10 μL of either […], or assay buffer for total MAO activity. A H2O2 standard was pipetted as supplied and 50 μL of reaction mix was pipetted into all wells. Using a CLARIOstar Plus Microplate Reader, (BMG Labtech, Ortenberg, Germany), fluorescence was measured kinetically at 25 °C for 60 min with Ex/Em = 535/587 nm.

[3] = system: T3, MAO-A; test: MAO-A activity assay in hESC-derived neurons stimulated with ATRA; assay type: cell-based, human; conditions: 1 μM ATRA 24 h, then TCP 5 μM, OLC 50 μM or OLP 50 μM for 24 h
T3 construct: endogenous in cells; host or cells: BJ human foreskin fibroblasts stimulated with DEX or HC
Experimental: as §1, §2

[4] = system: T2, MAO-B; test: MAO-B activity assay in corticosteroid-stimulated BJ cells; assay type: cell-based, human; conditions: then 50 μM compound 24 h
Experimental: (§3) The BJ cells were subsequently incubated with 10 μM HC or 100 μM DEX to stimulate MAO expression. […] The untreated BJ cells received normal growth medium. The cells were collected, homogenised, and analysed through Western blotting where the expression of MAO-A/B was determined through immunodetection of protein subtypes.
as §2

[5] = system: BJ cells; test: Viability of BJ cells (CellTiter-Blue Cell Viability Assay); assay type: cell-based, human; conditions: for IC50: Homo sapiens, BJ
Experimental: The BJ cells were seeded at densities of 10,000 cells in black flat bottom 96-well plates (Nalge Nunc, Penfield, Rochester, NY, USA) and treated with a dose–response of OLC (0–500 μM) and OLP (0–500 μM) for 24 h, 48 h, 72 h, and 7 days at 37 °C, 5% (v/v) CO2. Cell viability was measured using the Cell-Titer Blue® Assay kit (Promega, Madison, WI, USA) according to the manufacturer’s instructions. Cell-Titer Blue reagent was added to each well and incubated for 4 h at 37 °C with 5% (v/v) CO2 before the fluorescence intensity was read using the CLARIOstar Microplate Reader (BMG Labtech, Ortenberg, Germany).
A Nikon Eclipse Ts2 light microscope (Nikon Ti TS2-S-SM, Tokyo, Japan) was used to image untreated and treated BJ cells (OLP or OLC: 0–100 μM) at 4× objective magnification at 20, 44, and 120 h (Figures S1 and S2).

[6] = system: human skin fibroblasts; set-up: method as in PMID 37432217; conditions: in comparison to untreated controls, at certain doses; cited from earlier work
[7] = system: total MAO; test: Total MAO activity assay in hESC-derived neurons stimulated with ATRA; assay type: cell-based, human; conditions: 1 μM ATRA 24 h, then TCP 5 μM, OLC 50 μM or OLP 50 μM for 24 h
Experimental: as §1, §2

[8] = system: MAO-A/B expression; test: MAO-A/B protein expression in HC- or DEX-stimulated BJ cells (Western blotting); assay type: cell-based, human; conditions: 10 μM HC 5 days or 100 μM DEX 7 days, then 50 μM compound; Western blot
Experimental: as §3

[9] = system: T3, MAO-A; test: MAO-A activity assay in corticosteroid-stimulated BJ cells; assay type: cell-based, human; conditions: then 50 μM compound 24 h
Experimental: as §3, §2

[10] = biological target: T4, purified MAO-A (Homo sapiens, UniProt P21397); test: MAO-A direct screening assay (inhibitor screening kit); assay type: biochemical; conditions: purified enzyme; read-out: IC50, inhibition of MAO-A
T4 construct: purchased Sigma-Aldrich MAK295
T4 sequence (P21397 1-527): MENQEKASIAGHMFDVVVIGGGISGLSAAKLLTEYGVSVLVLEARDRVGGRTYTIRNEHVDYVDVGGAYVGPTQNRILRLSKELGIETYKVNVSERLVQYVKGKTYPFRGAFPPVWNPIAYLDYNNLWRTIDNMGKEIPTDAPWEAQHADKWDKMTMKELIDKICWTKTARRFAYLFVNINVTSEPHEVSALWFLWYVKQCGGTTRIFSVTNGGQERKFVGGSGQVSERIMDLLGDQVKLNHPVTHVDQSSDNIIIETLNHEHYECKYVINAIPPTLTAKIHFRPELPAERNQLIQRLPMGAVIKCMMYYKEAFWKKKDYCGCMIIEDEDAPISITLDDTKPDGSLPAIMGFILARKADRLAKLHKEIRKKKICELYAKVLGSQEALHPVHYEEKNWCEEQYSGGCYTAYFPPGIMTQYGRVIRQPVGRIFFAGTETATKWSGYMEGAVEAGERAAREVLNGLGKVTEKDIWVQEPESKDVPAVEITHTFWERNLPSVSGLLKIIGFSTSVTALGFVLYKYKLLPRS
Experimental: The assays were conducted for MAO-A and MAO-B according to the manufacturer’s instructions.

[11] = system: total MAO; test: Total MAO activity assay in corticosteroid-stimulated BJ cells; assay type: cell-based, human; conditions: then 50 μM compound 24 h
Experimental: as §3, §2

[12] = biological target: T1, LSD1; test: LSD1 fluorescence coupling enzyme assay (Reaction Biology Corporation); assay type: biochemical; conditions: Reaction Biology Corp., 30 min pre-incubation, 10 μM histone H3(1-21)K4me2 peptide substrate; read-out: IC50, LSD1 demethylase activity
Experimental: The inhibitory activity of HCl 489479, OLC, and OLP was measured using a fluorescence coupling enzyme assay (performed by Reaction Biology Corporation). […] All compounds were pre-incubated for 30 min with the enzyme before the addition of 10 μM histone H3(1-21)K4me2 peptide substrate to start the reaction. Fluorescence was measured using an EnVision Multimode Plate Reader at Ex/Em = 535/590.

CC=C(C=O)C(CC=O)CC(=O)OCCc1ccc(O)c(O)c1 (stereo in doubt) [oleacein]
IC50 [1]: ~2.5 µM

C/C=C(/C=O)[C@@H](CC=O)CC(=O)OCCc1ccc(O)cc1 [OLC, oleocanthal]
MAO-B activity in hESC-derived neurons [2]: significantly reduced | MAO-A activity in hESC-derived neurons [3]: significantly reduced | MAO-B activity in BJ cells ([4]; 10 μM HC 5 days): downregulate | MAO-B activity in BJ cells ([4]; 100 μM DEX 7 days): downregulate | relative viability of BJ cells at the highest concentration ([5]; 500 μM): reduction | proliferation potential of BJ cells ([5]; 25, 50, 75 and 100 μM, similar to untreated cells): maintained their proliferation potential | IC50 ([5]; 24 h): 123 µM | IC50 ([5]; 48 h): 111 µM | toxicity to BJ cells at the concentrations used in further experiments ([5]; concentrations used in further experiments (50 μM)): non-toxic | viability of BJ cells at lower concentrations ([5]; up to 200 μM): largely maintained | growth capacity of human skin fibroblasts [6]: significantly increased | total MAO activity in hESC-derived neurons [7]: significantly reduced | MAO enzyme expression within BJ cells [8]: Potent inhibition | MAO-A activity in BJ cells ([9]; 10 μM HC 5 days): downregulate | MAO-A activity in BJ cells ([9]; 100 μM DEX 7 days): downregulate | IC50 [10]: 1.9 µM | total MAO activity in BJ cells ([11]; 10 μM HC 5 days): downregulate | total MAO activity in BJ cells ([11]; 100 μM DEX 7 days): downregulate | IC50 [12]: 12 µM
